What is called IC50 is the concentration that inhibits the measured activity by half. The melting point is the temperature of the solid-liquid transition.

These results are taken from patent US7064229B2, “Succinic acid derivatives” (Bayer Healthcare AG, priority 2001, dated 2006).

In data set [1] the target is α4β1 integrin (VLA-4) on Ramos cells / recombinant human VCAM-1 (extracellular domains 1–3) (Homo sapiens, UniProt P05556+P13612). Kind of data set: Adhesion of Ramos cells to immobilized VCAM-1 (domains 1–3). It counts as cell-based. Details: host or cells: Ramos cells. The conditions noted are these: Ramos VCAM-1 assay; observed IC50 value ranges. The text has this:
In Vitro Assay: Adhesion of Ramos Cells to Immobilized VCAM-1 (Domains 1–3) Preparation of VCAM-1 (Extracellular Domains 1–3)
Complementary DNA (cDNA) encoding 7-domain form of VCAM-1 (GenBank accession #M60335) was obtained using Rapid-Screen™ cDNA library panels (OriGene Technologies, Inc) at Takara Gene Analysis Center (Shiga, Japan). The primers used were 5′-CCAAGGCAGAGTACGCAAAC-3′ (sense) and 5′-TGGCAGGTATTATTAAGGAG-3′ (antisense). PCR amplification of the 3-domain VCAM-1 cDNA was perform using Pƒ. DNA polymerase (Stratagene) with the following sets of primers: (U-VCAMdl-3) 5′-CCATATGGTACCTGATCAATTTAAAATCGAGACCACCCCAGAA-3′; (L-VCAMdl-3) 5′-CCATATAGCAATCCTAGGTCCAGGGGAGATCTCAACAGTAAA-3′. PCR cycle was 94° C. for 45 sec, 55° C. for 45 sec, 72° C. for 2 min, repeating 15 cycles. After the purification of the PCR product, the fragment was digested with KpnI-AvrII. The digested fragment was ligated into pBluescript IISK(−) (Strategene), which was linearized by digesting with KpnI-XhoI. The ligation was followed by transformation to a Dam/Dcm methylase-free E. coli strain SCS110 (Strategene) to create the donor plasmid pHH7. To direct VCAM-1 molecule into the insect cell secretory pathway, the VCAM-1 coding sequence was fused to signal peptide sequence of honeybee melittin. The resulting melittin-VCAM fusion was placed in correct orientation to the baculovirus polyhedrin promoter. Baculovirus transfer vector containing first 3-domain form VCAM-1 (pH10) was constructed by ligation of 0.9 kb fragment from AvrII/Klenow/BclI digests of pH7 into SalI/Klenow/BamHI digests of pMelBacB (Invitrogen). […] The recombinant virus was amplified by infection to High-Five™ insect cells for 5–6 days, and virus titer was determined by plaque assay.
High-Five™ insect cells were pelleted in a 225 ml conical tube by centrifugation at 1000 rpm for 5 min. […] Protein concentration was determined by using Coomassie protein assay reagent (Pierce) according to the manufacture's instruction. […]
Preparation of Fluorescence Labeled Ramos Cells […]

α4β1 integrin (VLA-4) on Ramos cells / recombinant human VCAM-1 (extracellular domains 1–3), sequence (P13612 34-1032): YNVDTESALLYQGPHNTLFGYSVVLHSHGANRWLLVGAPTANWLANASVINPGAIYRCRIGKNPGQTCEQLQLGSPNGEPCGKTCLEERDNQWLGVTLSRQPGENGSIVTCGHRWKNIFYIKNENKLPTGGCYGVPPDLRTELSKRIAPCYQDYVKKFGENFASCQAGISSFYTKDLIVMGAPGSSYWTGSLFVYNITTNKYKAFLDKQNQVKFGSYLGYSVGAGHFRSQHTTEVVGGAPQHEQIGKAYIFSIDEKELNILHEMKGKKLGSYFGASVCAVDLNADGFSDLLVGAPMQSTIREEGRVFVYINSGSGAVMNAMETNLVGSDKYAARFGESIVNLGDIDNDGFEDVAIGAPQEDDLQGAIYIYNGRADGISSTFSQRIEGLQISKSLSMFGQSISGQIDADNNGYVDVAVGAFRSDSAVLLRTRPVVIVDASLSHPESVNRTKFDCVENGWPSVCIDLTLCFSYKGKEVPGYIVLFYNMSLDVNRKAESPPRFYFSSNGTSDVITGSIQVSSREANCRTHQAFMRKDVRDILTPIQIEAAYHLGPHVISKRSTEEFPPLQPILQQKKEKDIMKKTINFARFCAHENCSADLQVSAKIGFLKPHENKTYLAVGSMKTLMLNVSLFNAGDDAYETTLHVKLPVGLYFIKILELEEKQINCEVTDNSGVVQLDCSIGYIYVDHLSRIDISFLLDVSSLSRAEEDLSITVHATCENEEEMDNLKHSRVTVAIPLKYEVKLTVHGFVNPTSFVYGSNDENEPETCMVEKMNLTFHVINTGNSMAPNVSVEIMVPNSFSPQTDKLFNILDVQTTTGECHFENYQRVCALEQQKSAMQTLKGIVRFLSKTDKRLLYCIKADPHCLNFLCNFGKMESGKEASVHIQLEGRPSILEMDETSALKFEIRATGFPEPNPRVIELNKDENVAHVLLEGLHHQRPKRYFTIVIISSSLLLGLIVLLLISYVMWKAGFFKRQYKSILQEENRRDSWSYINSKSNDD
α4β1 integrin (VLA-4) on Ramos cells / recombinant human VCAM-1 (extracellular domains 1–3), sequence (P05556 21-798): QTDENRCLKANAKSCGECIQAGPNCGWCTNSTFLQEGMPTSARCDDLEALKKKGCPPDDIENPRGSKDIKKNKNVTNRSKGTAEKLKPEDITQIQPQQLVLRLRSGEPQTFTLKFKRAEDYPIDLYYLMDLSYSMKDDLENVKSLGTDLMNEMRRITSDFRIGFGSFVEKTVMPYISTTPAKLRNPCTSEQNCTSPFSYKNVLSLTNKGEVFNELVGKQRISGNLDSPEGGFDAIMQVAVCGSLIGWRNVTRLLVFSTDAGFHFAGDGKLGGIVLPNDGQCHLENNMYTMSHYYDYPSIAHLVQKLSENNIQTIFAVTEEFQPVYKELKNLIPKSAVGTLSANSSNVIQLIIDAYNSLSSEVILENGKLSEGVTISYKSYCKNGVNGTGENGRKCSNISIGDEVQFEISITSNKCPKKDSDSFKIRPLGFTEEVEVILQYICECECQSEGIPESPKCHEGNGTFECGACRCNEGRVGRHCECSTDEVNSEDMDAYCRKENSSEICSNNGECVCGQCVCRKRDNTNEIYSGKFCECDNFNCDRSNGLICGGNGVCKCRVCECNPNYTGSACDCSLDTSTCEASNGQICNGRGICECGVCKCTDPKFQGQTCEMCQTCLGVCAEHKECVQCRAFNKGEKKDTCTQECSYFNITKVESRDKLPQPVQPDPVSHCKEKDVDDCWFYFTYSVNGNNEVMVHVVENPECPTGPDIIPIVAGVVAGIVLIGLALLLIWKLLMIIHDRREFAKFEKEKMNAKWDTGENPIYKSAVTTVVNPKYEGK

With `Cc1ccccc1NC(=O)Nc1ccc(NC(=O)C(CC(=O)Nc2ccc(C(=O)O)cc2)c2ccccc2)cc1` (centres unmarked) [Example 1, 4-[(4-{[4-({[(2-Methylphenyl)amino]carbonyl}amino)phenyl]-amino}-4-oxo-3-phenylbutanoyl)amino]benzoic acid], the melting point stood at 169 °C. Also, the IC50 in data set [1] was < 1000 nM.
`Cc1ccccc1NC(=O)Nc1ccc(NC(=O)CC(C(=O)Nc2ccc(C(=O)O)cc2)c2ccccc2)cc1` (centres unmarked) [Example 2, 4-[(4-{[4-({[(2-Methyl-phenyl)amino]carbonyl}-ami-no)phenyl]amino}-4-oxo-2-phenyl-butanoyl)amino]benzoic acid]: the IC50 in data set [1] is > 10000 nM.
For `Cc1ccccc1NC(=O)Nc1ccc(CNC(=O)CC(C(=O)Nc2ccc(C(=O)O)cc2)c2ccccc2)cc1` (centres unmarked) [Example 4, 4-[(4-{[4-({[(2-Methyl-phenyl)amino]carbonyl}-ami-no)benzyl]amino}-4-oxo-2-phenyl-butanoyl)-ami-no]benzoic acid], the melting point was 126 °C. In addition, in data set [1], the concentration for half-maximal inhibition (IC50) was < 1000 nM.
